# Values of other authors, collected in US9006268B2, “Prolylcarboxypeptidase inhibitors” (Merck Sharp & Dohme Corp., priority 2010, dated 2015).
# Key:
# [1] = literature studies of weight loss medications
# [2] = system: obese, leptin deficient mice; settings: systemic administration to obese
# [3] = system: rats; settings: intracerebroventricular administration to rats
Compound,weight loss of body weight for drug compared to placebo [1],overnight food intake [2],overnight food intake [3]
CCN[C@@H](C)Cc1cccc(C(F)(F)F)c1 [dexfenfluramine],5%-10%,–,–
CCCCCCCCCCC[C@@H](C[C@@H]1OC(=O)[C@H]1CCCCCC)OC(=O)[C@H](CC(C)C)NC=O [orlistat],5%-10%,–,–
CC(C)(N)Cc1ccccc1 [phentermine],5%-10%,–,–
CC(C)CC(N(C)C)C1(c2ccc(Cl)cc2)CCC1 (stereo not drawn) [sibutramine],5%-10%,–,–
t-butyl carbamate-prolyl prolinal [BPP],–,suppression of overnight food intake,suppression of overnight food intake
